Test results from doi:10.64898/2025.12.04.692314v1 (biorxiv, 2025).

Columns and labels:
Assay type in all cases: binding
[1] = target: AtACO2 (Arabidopsis thaliana, UniProt Q41931); assay: intrinsic tryptophan fluorescence quenching; details: 5 µM enzyme, Ni(II), 50 mM Tris pH 7.5, 28 °C; negative control (non-binder)
[2] = target: PhACO1 (Petunia x hybrida, UniProt Q08506, R244A); assay: isothermal titration calorimetry
[3] = target: PhACO1 (Petunia x hybrida, UniProt Q08506); assay: isothermal titration calorimetry
Sequence of PhACO1 (Petunia x hybrida, UniProt Q08506) (Q08506 whole entry): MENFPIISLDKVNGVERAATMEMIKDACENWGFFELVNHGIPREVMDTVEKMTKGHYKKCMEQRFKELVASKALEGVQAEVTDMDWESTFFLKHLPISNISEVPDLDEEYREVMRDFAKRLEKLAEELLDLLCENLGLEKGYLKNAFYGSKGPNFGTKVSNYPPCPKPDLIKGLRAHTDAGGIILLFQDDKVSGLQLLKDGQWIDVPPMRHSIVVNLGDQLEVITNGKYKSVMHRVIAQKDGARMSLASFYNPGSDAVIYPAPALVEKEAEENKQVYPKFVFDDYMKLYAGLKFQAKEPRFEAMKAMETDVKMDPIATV

Sequence of PhACO1 (Petunia x hybrida, UniProt Q08506, R244A) (Q08506 whole entry R244A): as the sequence (Q08506 whole entry) above, with R244A counted along it
Sequence of AtACO2 (Q41931 whole entry): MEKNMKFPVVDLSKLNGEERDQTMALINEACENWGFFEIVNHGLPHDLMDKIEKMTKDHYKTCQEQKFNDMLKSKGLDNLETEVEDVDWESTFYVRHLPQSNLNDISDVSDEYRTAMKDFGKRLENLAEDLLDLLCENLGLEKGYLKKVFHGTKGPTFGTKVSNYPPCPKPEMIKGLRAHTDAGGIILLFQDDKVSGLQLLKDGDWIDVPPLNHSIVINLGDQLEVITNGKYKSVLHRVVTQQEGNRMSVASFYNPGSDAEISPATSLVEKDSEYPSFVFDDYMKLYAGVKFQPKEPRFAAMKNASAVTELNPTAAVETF

intrinsic tryptophan fluorescence quenching [1]	Structure (SMILES)	Kd [2] [µM]	Kd [3] [µM]
benzoic acid did not quench fluorescence	O=C(O)c1ccccc1 [benzoic acid]	–	–
–	O=C(O)c1cnccn1 [POA]	104	69.5
